Results from patent US20230181535A1, “UBIQUITIN-LIGASE INHIBITORS FOR THE TREATMENT OF CANCER” (FUNDACIÓN PROFESOR NOVOA SANTOS, priority 2020, published 2023).

Legend:
[1] = tested on: LoVo cells; experiment: Phase-contrast cell phenotype, LoVo; type: cell-based
Description: MDCK, HEK293T, HepG2, MCF7 and ACHN cells were cultured in Dulbecco's Modified Eagles Medium (DMEM). MDCK stably expressing Hakai cells (Hakai-MDCK) were previously reported and were growth in DMEM with G418 (800 μg/ml). […] LoVo and PC-3 cells were cultured in F-12K Medium (Kaighn's Modification of Ham's F-12 Medium) and HT-29 and HCT116 cells in McCoy's 5a Medium Modified. 5637 cells were cultured in RPMI medium. All culture media were supplemented with 1% penicillin/streptomycin and 10% of heat-inactivated fetal bovine serum (FBS) at 37° C. in a humidified incubator with 5% CO2. Cells were monthly tested for mycoplasma contamination and used only for 1-3 months after defrosted. LoVo and HT29 cells were authenticated with the StemElite ID system (Promega). For phase-contrast images, culture cells were photographed with a Nikon Eclipse-TI microscope.

[2] = tested on: LoVo cells; experiment: Immunofluorescence of E-cadherin, LoVo; type: cell-based; conditions: 48 h, vs DMSO
Description: For western blot analysis, cells were treated with the indicated inhibitors for 48 h and the whole cell extracts were obtained as described previously. Twenty micrograms of lysates were resolved on a 10% polyacrilamide SDS-PAGE followed by western blot analysis performed as previously described. For immunofluorescence assays cells were grown for 24 h on glass coverslips and treated with the indicated inhibitors for 48 h. Cells were fixed with 4% PFA for 15 min, permeabilized with 0.5% […] and incubated with E-cadherin antibody for 2 h. Coverslips were incubated with fluorescein-tagged secondary antibody (Dakopatts, Sweden) for […]. Finally coverslips were mounted with ProLong Gold antifade reagent (LifeTech, UK) and images were taken in epifluorescence microscope (Olympus) using 40× objective. […] One set of SIM Synthetic Focus images were taken in the DAPI channel for Hoechst 33342 staining, and another set of images were taken in the FITC channel for anti-E-cadherin-AlexaFluor488 labeling and analysed by Structured Illumination Microscopy (SIM™) platform to image the cells and Vala's CyteSeer® Cell-Cell Junction Algorithm to quantify the degree of expression and intracellular location of E-cadherin Vala's CyteSeer® Software can also measure relative DNA content by analyzing Total Integrated Intensity (TII) of the Nuclear Image (Ni) on the Nuclear Mask (Nm). […]

[3] = tested on: HT-29 cells; experiment: Soft agar-colony formation assay, HT-29; type: cell-based, human; conditions: 28 days
Description: Soft agar-colony formation assay was performed on 12-well plates in triplicates at a density of 5×10^3 MDCK and MDCK-Hakai cells/well, or 12×10^3 HT29 cells/well. Cells were seeded in medium with 0.5% low-melting agarose over a layer with 0.75% low-melting agarose (Lonza Rockland, Me., USA). Cells were treated with the indicated inhibitors and DMSO was used as vehicle. Treatment was refreshed every 3 days and, after 21 days for MDCK and MDCK-Hakai cells or 28 days for HT29 cells, number of colonies were quantified. Quantification of five randomly-selected fields of each condition was photographed with a Nikon Eclipse-TI microscope (objective 4×). Experiments were conducted with three triplicates and were repeated three times. Data are represented as mean±SD.

[4] = Hepatocyte stability, mouse; type: in vitro ADME; conditions: cryopreserved mouse hepatocytes in suspension, read-out: half-life (T½)
Description: (§1) Test compound (final substrate concentration 3 μM; final DMSO concentration 0.25%) were pre-incubated at 37° C., prior to the addition of a suspension of cryopreserved hepatocytes (final cell density 0.5×10^6 viable cells/mL in Williams E media supplemented with 2 mM L glutamine and 25 mM HEPES) to initiate the reaction. The reactions were stopped with acetonitrile containing internal standard at the appropriate time points ([…]). The termination plates were centrifuged at 2500 rpm at 4° C. for 30 minute to precipitate the protein. Following the hepatocyte stability assays, the samples were utilized for metabolite profiling. Hepatocyte stability in mouse and human was performed by using the incubation of tested compound (3 μM) with cryopreserved hepatocytes in suspension. Samples were removed at 6 time points over the course of a 60 min experiment and remaining test compound at each time point was analysed by using LC-MS/MS. Then, data was analysed and an intrinsic clearance (CLint) with standard error and half-life (t½) reported.

[5] = tested on: mouse-cryopreserved hepatocytes; experiment: Hepatocyte stability, mouse; type: in vitro ADME; conditions: 3 μM
Description: as §1

| SMILES | cell phenotype by phase contrast [1] | E-cadherin levels at cell-cell contacts (immunofluorescence) [2] | colony formation in soft agar [3] | half-life at 3 μM [4] [min] | compound remaining after 60 min [5] |
| --- | --- | --- | --- | --- | --- |
| O=C(O)c1ccc(-n2nnnc2SCC(=O)c2ccc([N+](=O)[O-])cc2)cc1 [Hakin-1, 4-(5-[2-(4-nitrophenyl)-2-oxoethyl]thiol-1H-tetrazol-1-yl)benzoic acid] | modestly induce an epithelial phenotype | significant increase E-cadherin levels at cell-cell contacts | robust inhibition of colony formation | 5.92 |  |
| O=C(O)c1ccc(-n2nnnc2SCC(O)c2ccc([N+](=O)[O-])cc2)cc1 (centres unmarked) [MKH1] |  |  |  |  | 95%-100% |
